pIC50: −log10 of the molar value.
Assays:
iNOS and COX-2 [1] = assay: iNOS and COX-2 protein expression in LPS-stimulated BV-2 cells (immunoblotting); format: cell-based, mouse; details: BV-2 cells, 3.33, 10 or 30 μM, 1 μg/mL LPS, 24 hours
Experimental: (§1) To further confirm the oxidative stress suppression effect, the content of nitrite released due to an inflammatory response and the expression levels of iNOS, which is an enzyme that produces nitric oxide, and COX-2, which is cyclooxygenase-2, were determined in mouse microglial cells (BV-2, ATCC, Manassas, VA, USA).
(§2) To determine the content of nitrite and the protein expression levels of iNOS and COX-2, BV-2 was seeded in a 12-well plate (Corning, MD, USA) at 1.5×10^5 cells/well, and cultured using a DMEM medium (Corning, MD, USA) containing 10% fetal bovine serum (Corning, MD, USA) and 100 U/ml of penicillin/streptomycin (Corning, MD, USA) at 37° C. in a 5% CO2 incubator for one day for stabilization. […] 1 μg/mL of LPS (Sigma, USA) was added to all experimental groups excluding the non-inflammation-induced group and allowed to react at 37° C. in a 5% CO2 incubator for 24 hours.
The cells from which the cell culture solution was harvested were disrupted by adding a RIPA buffer containing a protease inhibitor cocktail (Thermo Fisher Scientific), and centrifuged at 14,000 rpm for 15 minutes at 4° C. to obtain a cell extract. Equal amounts of the cell extract were loaded, and proteins were separated through SDS-PAGE and then transferred to a PVDF membrane. […]

[2] = Cytotoxicity evaluation, CCK analysis kit; format: cell-based; details: human, MM.1S (CRL-2974) multiple myeloma cells; MM.1S cells, treated for 3 days
Experimental: The MM.1S (CRL-2974) cell line, which is a human multiple myeloma cell line, was purchased from the American Type Culture Collection (ATCC, Manassas, VA, USA) and used, and incubated using RPMI1640 medium (Corning, MD, USA) supplemented with 10% fatal bovine serum (Corning, MD, USA), 100 U/ml of penicillin (Corning, MD, USA), and 100 μg/ml of streptomycin (Corning, MD, USA) at 37° C. in a 5% CO2 incubator for 24 hours.

iNOS and COX-2 [3] = assay: iNOS and COX-2 mRNA expression in LPS-stimulated BV-2 cells (real-time PCR); format: cell-based, mouse; details: BV-2 cells, 3.33, 10 or 30 μM, 1 μg/mL LPS, 6 hours
Experimental: as §2, with “Finally, to” for “To”, “mRNA” for “content of nitrite and the protein”, “6-well” for “12-well”, “5×10^5” for “1.5×10^5”, “6” for “24”
The drug-treated BV-2 underwent RNA prep according to the kit manual using an RNA prep kit (Monarch Total RNA Miniprep kit, NEB, UK), and the concentration was measured using a nanophotometer (NP80, Implen, Germany). […]
The expression level of each oxidative stress-associated gene in the synthesized cDNA was analyzed and compared using Real-Time PCR (StepOne™ Bioscience, USA) equipment. […] The CT value for the gene of each sample obtained through real-time PCR was normalized by the value of the internal control gene (GAPDH) of each sample, the expression level was estimated inversely by 2ΔΔCT calculation, and the resulting value of each group was quantified and expressed as a percentage relative to the LPS-only treatment group.

BV-2 cells = assay: Nitrite content in culture solution of LPS-stimulated BV-2 cells (Griess Reagent System); format: cell-based, mouse; details: BV-2 cells, 3.33, 10 or 30 μM, 1 μg/mL LPS, 24 hours
Experimental: as §1, §2
The cell culture solution was collected to measure the content of nitrite, and centrifuged at 3,000 rpm for 5 minutes to obtain a supernatant. The concentration of nitrite in the cell culture solution was measured using a microplate reader (NEO2MALPHAB Synergy Neo-2, BioTek, CA, US) according to the manual of the Griess Reagent System (#G2930, Promega, WI, USA).

cereblon (CRBN) = cereblon (CRBN) (Homo sapiens, UniProt Q96SW2); assay: In vitro CRBN binding assay (AlphaScreen, competitive inhibition of the PROTAC assay)
SALL4 = SALL4 degradation by immunoblotting in Tera-1 cells; format: cell-based, human; details: 0.000128-10 μM, 4 hours
Text: It has been reported that a cereblon (CRBN)-binding therapeutic such as a thalidomide-based compound can cause severe congenital abnormalities such as forelimb shortening or brachydactyly, which are closely associated with the decomposition of SALL4.
To this end, the Tera-1 cell line (HTB-105), which is a human embryonic carcinoma cell line, was purchased from the American Type Culture Collection (ATCC, Manassas, VA, USA) and used, and then cultured using a DMEM medium (Corning, MD, USA) supplemented with 10% fetal bovine serum (Corning, MD, USA), 100 U/ml of penicillin (Corning, MD, USA), and 100 μg/ml streptomycin (Corning, MD, USA) at 37° C. in a 5% CO2 incubator.
The cells were disrupted by adding a RIPA buffer containing a protease inhibitor cocktail (Thermo Fisher Scientific), and centrifuged at 14,000 rpm for 15 minutes at 4° C. to obtain a cell extract. Equal amounts of the cell extract were loaded, and proteins were separated by SDS-PAGE and then transferred to a PVDF membrane. The protein-transferred membrane was blocked using skim milk, incubated with a primary antibody for 3 hours at room temperature, and then incubated with an HRP-conjugated secondary antibody for 1 hour at room temperature. The resulting product was washed with TBS-T three times between steps. […]

pIC50 (cereblon (CRBN)): 6.72
Structure (SMILES): Nc1cccc2c1C(=S)N(C1CCC(=O)NC1=O)C2=O (stereo not drawn) [3-MP, 3-thiopomalidomide]
expression of oxidative stress-associated proteins (iNOS and COX-2) (iNOS and COX-2 [1]): effectively reduced
IC50 at 3 days [2]: ≥ 50000 nM
mRNA expression of oxidative stress-associated gene (iNOS, COX-2) (iNOS and COX-2 [3]): effectively inhibit the mRNA expression of an oxidative stress-associated gene
amount of nitrite released by LPS (BV-2 cells): effectively reduced the amount of the residual nitrite released by LPS
decomposition of SALL4 (SALL4): less decomposition of SALL4 than pomalidomide

Source: US20250161286A1 (AEVIS BIO, INC., priority 2022, published 2025)
